According to PubChem BioAssay (NCI):
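Five concentrations, 48 hours, 96-well plates. GI50 marks 50% less growth. TGI denotes the concentration required for complete inhibition of growth.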

Legend:
Experiment in all cases: NCI tumour cell line growth inhibition, 48 h
LOX IMVI melanoma = test system: LOX IMVI melanoma
SNB-78 CNS = test system: SNB-78 CNS
SNB-19 CNS = test system: SNB-19 CNS
M14 melanoma = test system: M14 melanoma
SK-OV-3 ovarian = test system: SK-OV-3 ovarian
TK-10 renal = test system: TK-10 renal
DLD-1 colon = test system: DLD-1 colon
BT-549 breast = test system: BT-549 breast
DU-145 prostate = test system: DU-145 prostate
RPMI-8226 leukemia = test system: RPMI-8226 leukemia

Question: With `O=C(/C=C/c1ccccc1O)c1cccnc1` as the compound, how does the TGI (LOX IMVI melanoma) read?
Answer: The TGI was greater than 100000 nM.

Question: And the TGI (SNB-78 CNS)?
Answer: The TGI was greater than 100000 nM.

Question: And the TGI (SNB-19 CNS)?
Answer: Its TGI is greater than 100000 nM.

Question: What about the TGI (M14 melanoma) of the same compound?
Answer: Its TGI is greater than 100000 nM.

Question: And the TGI (SK-OV-3 ovarian)?
Answer: The TGI was greater than 100000 nM.

Question: And the TGI (TK-10 renal)?
Answer: The TGI was greater than 100000 nM.

Question: And the TGI (DLD-1 colon)?
Answer: Its TGI is greater than 100000 nM.

Question: Which results are given for `CCOC(=O)Cn1c(C)c(/C=N/NC(=O)c2cc3c(ccc4ccccc43)o2)c2ccccc21`?
Answer: GI50 (LOX IMVI melanoma): 537 nM; TGI (LOX IMVI melanoma): 2780 nM; GI50 (SNB-19 CNS): 478 nM; TGI (SNB-19 CNS): 16300 nM; GI50 (BT-549 breast): 853 nM; TGI (BT-549 breast): 5130 nM; GI50 (M14 melanoma): 307 nM; TGI (M14 melanoma): 4350 nM; GI50 (SK-OV-3 ovarian): 804 nM; TGI (SK-OV-3 ovarian): 9440 nM; GI50 (DU-145 prostate): 411 nM; TGI (DU-145 prostate): 2930 nM; GI50 (RPMI-8226 leukemia): 443 nM; TGI (RPMI-8226 leukemia): 3120 nM; GI50 (TK-10 renal): 1260 nM; TGI (TK-10 renal): 3920 nM

Question: For `CC(=O)C1C(=O)C(=O)N(c2ccccc2N2C(=O)C(=O)C(C(C)=O)C2=O)C1=O` (centres undefined), which TGI (LOX IMVI melanoma) is on record?
Answer: Its TGI is greater than 100000 nM.

Question: And the TGI (SNB-78 CNS)?
Answer: Its TGI is greater than 100000 nM.

Question: And the TGI (SNB-19 CNS)?
Answer: The TGI was greater than 100000 nM.

Question: And the TGI (M14 melanoma)?
Answer: The TGI was greater than 100000 nM.

Question: What about the TGI (SK-OV-3 ovarian) of the same compound?
Answer: Its TGI is greater than 100000 nM.

Question: And the TGI (RPMI-8226 leukemia)?
Answer: The TGI was greater than 100000 nM.

Question: What about the TGI (TK-10 renal) of the same compound?
Answer: Its TGI is greater than 100000 nM.

Question: What about the TGI (DLD-1 colon) of the same compound?
Answer: Its TGI is greater than 100000 nM.

Question: Which results are given for `CC1(C)CC(OCCCC[P+](c2ccccc2)(c2ccccc2)c2ccccc2)CC(C)(C)N1O`?
Answer: GI50 (LOX IMVI melanoma): 317 nM; TGI (LOX IMVI melanoma): 1250 nM; GI50 (SNB-19 CNS): 317 nM; TGI (SNB-19 CNS): 2200 nM; GI50 (BT-549 breast): 274 nM; TGI (BT-549 breast): 1040 nM; GI50 (M14 melanoma): 433 nM; TGI (M14 melanoma): 1900 nM; GI50 (SK-OV-3 ovarian): 302 nM; TGI (SK-OV-3 ovarian): 787 nM; GI50 (DU-145 prostate): 409 nM; TGI (DU-145 prostate): 7750 nM; GI50 (RPMI-8226 leukemia): 19 nM; TGI (RPMI-8226 leukemia): 133 nM; GI50 (TK-10 renal): 361 nM; TGI (TK-10 renal): 2360 nM

Question: How did the TGI (LOX IMVI melanoma) turn out when `Cc1ccc(S(=O)(=O)SCc2ccccc2CSS(=O)(=O)c2ccc(C)cc2)cc1` was run?
Answer: Its TGI is 29400 nM.

Question: And the TGI (SNB-78 CNS)?
Answer: The TGI was greater than 100000 nM.

Question: What about the TGI (SNB-19 CNS) of the same compound?
Answer: Its TGI is greater than 100000 nM.

Question: And the TGI (M14 melanoma)?
Answer: Its TGI is 47300 nM.

Question: And the TGI (SK-OV-3 ovarian)?
Answer: Its TGI is greater than 100000 nM.

Question: What about the TGI (RPMI-8226 leukemia) of the same compound?
Answer: Its TGI is 43100 nM.

Question: And the TGI (TK-10 renal)?
Answer: Its TGI is greater than 100000 nM.

Question: What about the TGI (DLD-1 colon) of the same compound?
Answer: The TGI was 30000 nM.

Question: What does the source list for `Cc1cccc(NC(=O)CCl)c1`?
Answer: TGI (LOX IMVI melanoma): > 10000 nM; TGI (SNB-19 CNS): > 10000 nM; TGI (BT-549 breast): > 10000 nM; TGI (M14 melanoma): > 10000 nM; TGI (SK-OV-3 ovarian): > 10000 nM; TGI (DU-145 prostate): > 10000 nM; TGI (RPMI-8226 leukemia): > 10000 nM; TGI (TK-10 renal): > 10000 nM

Question: For `C#C[C@@]1(O)[C@@H](CO)O[C@@H](n2ccc3c(N)ncnc32)[C@@H]1O`, which GI50 (LOX IMVI melanoma) is on record?
Answer: The GI50 was 667 nM.

Question: What about the TGI (LOX IMVI melanoma) of the same compound?
Answer: Its TGI is 2050 nM.

Question: And the GI50 (SNB-19 CNS)?
Answer: Its GI50 is 1620 nM.

Question: And the TGI (SNB-19 CNS)?
Answer: Its TGI is 6610 nM.

Question: And the GI50 (BT-549 breast)?
Answer: Its GI50 is 1630 nM.

Question: And the TGI (BT-549 breast)?
Answer: Its TGI is 3640 nM.

Question: And the GI50 (M14 melanoma)?
Answer: The GI50 was 1420 nM.

Question: And the TGI (M14 melanoma)?
Answer: The TGI was 3000 nM.

Question: And the GI50 (SK-OV-3 ovarian)?
Answer: The GI50 was 1070 nM.

Question: What about the TGI (SK-OV-3 ovarian) of the same compound?
Answer: The TGI was 5240 nM.

Question: And the GI50 (DU-145 prostate)?
Answer: Its GI50 is 563 nM.

Question: And the TGI (DU-145 prostate)?
Answer: The TGI was 6560 nM.

Question: And the GI50 (RPMI-8226 leukemia)?
Answer: The GI50 was 777 nM.

Question: And the TGI (RPMI-8226 leukemia)?
Answer: The TGI was greater than 100000 nM.

Question: And the GI50 (TK-10 renal)?
Answer: Its GI50 is 2650 nM.

Question: And the TGI (TK-10 renal)?
Answer: The TGI was 9480 nM.

Question: Which TGI (LOX IMVI melanoma) does the source give for `CC1(O)CC2(O)C=CC3=C(C(=O)c4cccc(O)c4C3=O)C2(O)C(=O)C1O` (centres undefined) here?
Answer: The TGI was 3370 nM.

Question: What about the TGI (SNB-19 CNS) of the same compound?
Answer: Its TGI is 30400 nM.

Question: What about the TGI (BT-549 breast) of the same compound?
Answer: Its TGI is 2580 nM.

Question: And the TGI (M14 melanoma)?
Answer: Its TGI is 2740 nM.

Question: And the TGI (SK-OV-3 ovarian)?
Answer: The TGI was 28500 nM.

Question: What about the TGI (DU-145 prostate) of the same compound?
Answer: Its TGI is 32300 nM.

Question: And the TGI (RPMI-8226 leukemia)?
Answer: Its TGI is 4660 nM.

Question: And the TGI (TK-10 renal)?
Answer: The TGI was 3120 nM.

Question: What about the TGI (DLD-1 colon) of the same compound?
Answer: The TGI was 2310 nM.

Question: How did the GI50 (LOX IMVI melanoma) turn out when `CN(C)C(=O)c1cc2cnc(Nc3ccc(-c4csc5c(=O)cc(N6CCNCC6)oc45)cc3)nc2n1C1CCCC1` was run?
Answer: Its GI50 is 850 nM.

Question: What about the TGI (LOX IMVI melanoma) of the same compound?
Answer: The TGI was 2220 nM.

Question: What about the GI50 (SNB-19 CNS) of the same compound?
Answer: The GI50 was 551 nM.

Question: What about the TGI (SNB-19 CNS) of the same compound?
Answer: The TGI was 2620 nM.

Question: What about the GI50 (BT-549 breast) of the same compound?
Answer: The GI50 was 1350 nM.

Question: And the TGI (BT-549 breast)?
Answer: Its TGI is 3150 nM.

Question: What about the GI50 (M14 melanoma) of the same compound?
Answer: Its GI50 is 990 nM.

Question: And the TGI (M14 melanoma)?
Answer: Its TGI is 2590 nM.

Question: And the GI50 (SK-OV-3 ovarian)?
Answer: The GI50 was 6210 nM.

Question: And the TGI (SK-OV-3 ovarian)?
Answer: The TGI was 21200 nM.

Question: What about the GI50 (DU-145 prostate) of the same compound?
Answer: Its GI50 is 1010 nM.

Question: What about the TGI (DU-145 prostate) of the same compound?
Answer: Its TGI is 2500 nM.

Question: What about the GI50 (RPMI-8226 leukemia) of the same compound?
Answer: Its GI50 is 453 nM.

Question: What about the TGI (RPMI-8226 leukemia) of the same compound?
Answer: Its TGI is 2740 nM.

Question: What about the GI50 (TK-10 renal) of the same compound?
Answer: Its GI50 is 1340 nM.

Question: And the TGI (TK-10 renal)?
Answer: Its TGI is 14600 nM.
